Structures are written as SMILES. Starred links: 1 amine or outer side, 2 acyl side, 3 side chain; linkers in the order of their positions; H or OH if unused. Positions of bridges follow the written chain, without caps; N, C: chain ends. Non-standard residues stand in square brackets, D forms with d. Residues, ends and D or L forms follow the SMILES beside them. Groups on a side chain read outwards from the residue. *: point of attachment. X43 = C[N+](C)(C)CCCCCc1cn(-c2ccc(C[C@H](N[*:1])C(=O)[*:2])cc2)nn1; X27 = C[N+](C)(C)CCc1cn(-c2ccc(C[C@H](N[*:1])C(=O)[*:2])cc2)nn1; Me3N+(CH2)2O(CH2)2O(CH2)2CO = C[N+](C)(C)CCOCCOCCC(=O)*; Trp(7-Me) = Cc1cccc2c(C[C@H](N)C(=O)O)c[nH]c12; γGlu = O=C(O)[C@H](CCC(=O)[*:2])N[*:1]; 2Nal = N[C@@H](Cc1ccc2ccccc2c1)C(=O)O; AEF = NCCOc1ccc(C[C@H](N)C(=O)O)cc1; 3Pal = N[C@@H](Cc1cccnc1)C(=O)O; Lys(Me) = CNCCCC[C@H](N)C(=O)O; NMeK = CN[C@@H](CCCCN)C(=O)O; Pen = CC(C)(S)[C@H](N)C(=O)O; Lauroyl = CCCCCCCCCCCC(=O)*; Thp = NC1(C(=O)O)CCOCC1; X17 = C[N+]1(CC*)CCOCC1; X3 = C[N+](C)(C)CCCCC*; AEEA = NCCOCCOCC(=O)O; Me2NCH2CH2 = CN(C)CC*; Sar = CNCC(=O)O

We go through eight compounds from US20260022143A1, “Cyclic Peptide Inhibitors of IL-23” (JANSSEN PHARMACEUTICA NV, priority 2022, published 2026).

In data set [1] the target is T1, IL-23R (Homo sapiens, UniProt Q5VWK5).
T1 construct: host or cells: HEK293
T1 sequence (Q5VWK5 24-629): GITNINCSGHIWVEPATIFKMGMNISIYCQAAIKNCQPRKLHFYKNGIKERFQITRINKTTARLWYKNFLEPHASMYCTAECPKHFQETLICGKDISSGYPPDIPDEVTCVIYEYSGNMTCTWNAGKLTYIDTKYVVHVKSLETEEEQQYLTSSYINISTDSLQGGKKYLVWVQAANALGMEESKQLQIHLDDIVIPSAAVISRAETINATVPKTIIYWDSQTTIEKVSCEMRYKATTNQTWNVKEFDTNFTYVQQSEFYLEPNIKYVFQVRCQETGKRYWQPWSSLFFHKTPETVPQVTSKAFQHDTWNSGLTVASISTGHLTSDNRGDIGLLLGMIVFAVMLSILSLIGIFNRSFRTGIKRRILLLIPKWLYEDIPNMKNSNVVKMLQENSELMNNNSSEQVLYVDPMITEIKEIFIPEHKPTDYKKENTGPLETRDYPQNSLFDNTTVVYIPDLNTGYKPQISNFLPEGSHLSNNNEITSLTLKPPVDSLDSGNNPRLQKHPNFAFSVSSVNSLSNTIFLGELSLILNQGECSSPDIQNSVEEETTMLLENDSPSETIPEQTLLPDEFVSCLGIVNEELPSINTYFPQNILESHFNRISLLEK
The data set can be described thus: IL23R Reporter Assay. It is filed as cell-based. The settings on record: HEK293 cells containing IL-23R, IL-12RP1 and STAT-inducible firefly luciferase reporter; 10 ng/mL IL-23 (EC90); 5 h at 37° C.; read-out: IL23R Reporter Assay.

The nature of data set [2]: Exposed Polar Surface Area (EPSA). To be noted: SFC on Chirex 3014 column; sample 1 mM DMSO stock; read-out: EPSA. It is filed as physicochemical. An outline of the steps: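 SFC retention on a Chirex 3014 (S-valine/(R)-1-(α-naphthyl)ethylamine) column at 35 °C, 4 mL/min, 14 MPa outlet, 5–60% methanol/20 mM ammonium formate gradient in CO2. Retention times converted to EPSA (Å²) via linear calibration with 8 standards; samples from 1 mM DMSO stock, run in duplicate.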

On to `CC(=O)NC(COCCOCC[N+](C)(C)C)C(=O)N[C@@H]1C(=O)N[C@@H](CC(=O)N(C)C)C(=O)N[C@@H]([C@@H](C)O)C(=O)N[C@@H](Cc2c[nH]c3c(C)cccc23)C(=O)N[C@@H](CCCCN(C)C(C)=O)C(=O)N[C@H](C(=O)N[C@@H](Cc2ccc(OCCn3cc(CCCC[N+](C)(C)C)nn3)cc2)C(=O)N[C@@H](Cc2ccc3ccccc3c2)C(=O)NC2(C(=O)N[C@@H](CCCCN(C)C(C)=O)C(=O)N[C@@H](CC(N)=O)C(=O)N[C@@H](Cc3cccnc3)C(=O)N(C)CC(=O)N(C)C)CCOCC2)C(C)(C)SSC1(C)C` (mixture of isomers) [compound 545, MeCO-APEG2Ser(RS)-Pen(3)-N(N(Me)2)-T-7MeW-K(NMeAc)-Pen(3)-Y(OTzlTMA4)-2Nal-THP-K(NMeAc)-N-3Pya-Sar-CON(Me)2], for which the IC50 in data set [1] was 0.83 nM. Further, in data set [2], the EPSA was found to be 154 A^2.

As to `CC(=O)NCCCC[C@@H]1NC(=O)[C@H](Cc2c[nH]c3c(C)cccc23)NC(=O)[C@H]([C@@H](C)O)NC(=O)[C@H](CC(N)=O)NC(=O)[C@@H](NC(=O)[C@@H](CCCNC(=N)N)NC(C)=O)C(C)(C)SSC(C)(C)[C@@H](C(=O)N[C@@H](Cc2ccc(OCC[N+]3(C)CCOCC3)cc2)C(=O)N[C@@H](Cc2ccc3ccccc3c2)C(=O)NC2(C(=O)N[C@@H](CCC(=O)O)C(=O)N[C@@H](CC(N)=O)C(=O)N[C@@H](Cc3cccnc3)C(=O)N(C)CC(N)=O)CCOCC2)NC1=O` [compound 437] (Ac-[dR][Pen]NT[Trp(7-Me)]K(Ac)[Pen]Y(X17)[2Nal][Thp]EN[3Pal][Sar]-NH2; disulfide 2-7 (inferred)), the IC50 in data set [1] was found to be 1.2 nM. In addition, the EPSA in data set [2] stood at 186 A^2.

With `CC(=O)N(C)CCCC[C@@H]1NC(=O)[C@H](Cc2c[nH]c3c(C)cccc23)NC(=O)[C@H]([C@@H](C)O)NC(=O)[C@H](CC(=O)N(C)C)NC(=O)[C@@H](NC(=O)CCOCCOCC[N+](C)(C)C)C(C)(C)SSC(C)(C)[C@@H](C(=O)N[C@@H](Cc2ccc(-n3cc(CCCCC[N+](C)(C)C)nn3)cc2)C(=O)N[C@@H](Cc2ccc3ccccc3c2)C(=O)NC2(C(=O)N[C@@H](CCCCN(C)C(C)=O)C(=O)N[C@@H](CC(N)=O)C(=O)N[C@@H](Cc3cccnc3)C(=O)N(C)CC(=O)N(C)C)CCOCC2)NC1=O` [compound 335, cPEG3aCO-Pen(3)-N(N(Me)2)-T-7MeW-K(NMeAc)-Pen(3)-F(4TzlTMA5)-2Nal-THP-K(NMeAc)-N-3Pya-Sar-CON(Me)2] ({Me3N+(CH2)2O(CH2)2O(CH2)2CO}-[Pen]D(NMe2)T[Trp(7-Me)][Lys(Me)](Ac)[Pen][X43][2Nal][Thp][Lys(Me)](Ac)N[3Pal][Sar]-NMe2; disulfide 1-6), the IC50 in data set [1] amounted to 1.2 nM. The EPSA in data set [2] worked out at 153 A^2.

Regarding `CC(=O)NCCCC[C@@H]1NC(=O)[C@H](Cc2c[nH]c3c(C)cccc23)NC(=O)[C@H]([C@@H](C)O)NC(=O)[C@H](CC(N)=O)NC(=O)[C@@H](NC(C)=O)C(C)(C)SSC(C)(C)[C@@H](C(=O)N[C@@H](Cc2ccc(-n3cc(CC[N+](C)(C)C)nn3)cc2)C(=O)N[C@@H](Cc2ccc3ccccc3c2)C(=O)NC2(C(=O)N[C@@H](CCC(=O)O)C(=O)N[C@@H](CC(N)=O)C(=O)N[C@@H](Cc3cccnc3)C(=O)N(C)CC(N)=O)CCOCC2)NC1=O` [compound 454] (Ac-[Pen]NT[Trp(7-Me)]K(Ac)[Pen][X27][2Nal][Thp]EN[3Pal][Sar]-NH2; disulfide 1-6 (inferred)), the IC50 in data set [1] came to 2.1 nM. Further, in data set [2], the EPSA was determined as 176 A^2.

With `CC(=O)N[C@@H]1C(=O)N[C@@H](CC(=O)N(C)C)C(=O)N[C@@H]([C@@H](C)O)C(=O)N[C@@H](Cc2c[nH]c3c(C)cccc23)C(=O)N[C@@H](CCCCN(C)C(C)=O)C(=O)N[C@H](C(=O)N[C@@H](Cc2ccc(OCCN(C)C)cc2)C(=O)N[C@@H](Cc2ccc3ccccc3c2)C(=O)NC2(C(=O)N[C@@H](CCC(=O)O)C(=O)N[C@@H](CC(N)=O)C(=O)N[C@@H](Cc3cccnc3)C(=O)N(C)CC(=O)N(C)C)CCOCC2)C(C)(C)SSC1(C)C` [compound 106, MeCO-Pen(3)-N(N(Me)2)-T-7MeW-K(NMeAc)-Pen(3)-AEF(N(Me)2)-2Nal-THP-E-N-3Pya-Sar-CON(Me)2] (Ac-[Pen]D(NMe2)T[Trp(7-Me)][Lys(Me)](Ac)[Pen]Y(Me2NCH2CH2)[2Nal][Thp]EN[3Pal][Sar]-NMe2; disulfide 1-6 (inferred)), the IC50 in data set [1] is 6.5 nM. Besides, in data set [2], the EPSA amounted to 153 A^2.

`CCCCCCCCCCCC(=O)N[C@@H](CCC(=O)NCCOCCOCC(=O)NCCOCCOCC(=O)NCCOCCOCC(=O)NCCOCCOCC(=O)NCCCC[C@@H](NC(=O)CCOCCOCC[N+](C)(C)C)C(=O)N[C@@H]1C(=O)N[C@@H](CC(=O)N(C)C)C(=O)N[C@@H]([C@@H](C)O)C(=O)N[C@@H](Cc2c[nH]c3c(C)cccc23)C(=O)N[C@@H](CCCCNC(C)=O)C(=O)N[C@H](C(=O)N[C@@H](Cc2ccc(OCCCCC[N+](C)(C)C)cc2)C(=O)N[C@@H](Cc2ccc3ccccc3c2)C(=O)NC2(C(=O)N[C@@H](CCCCN(C)C(C)=O)C(=O)N[C@@H](CC(N)=O)C(=O)N[C@@H](Cc3cccnc3)C(=O)N(C)[C@@H](CCCCNC(=O)COCCOCCNC(=O)COCCOCCNC(=O)COCCOCCNC(=O)COCCOCCNC(=O)CC[C@H](NC(=O)CCCCCCCCCCC)C(=O)O)C(N)=O)CCOCC2)C(C)(C)SSC1(C)C)C(=O)O` [compound 404, cPEG3aCO-k(PEG2PEG2PEG2PEG2gEC12)-Pen(3)-N(N(Me)2)-T-7MeW-K(Ac)-Pen(3)-TMAPF-2Nal-THP-K(NMeac)-N-3Pya-NMeK(PEG2PEG2PEG2PEG2gEC12)-CONH2] ({Me3N+(CH2)2O(CH2)2O(CH2)2CO}-[dK]([AEEA-AEEA-AEEA-AEEA-γGlu-Lauroyl])[Pen]D(NMe2)T[Trp(7-Me)]K(Ac)[Pen]Y(X3)[2Nal][Thp][Lys(Me)](Ac)N[3Pal][NMeK]([AEEA-AEEA-AEEA-AEEA-γGlu-Lauroyl])-NH2; disulfide 2-7): the IC50 in data set [1] amounted to 31 nM. Also, in data set [2], the EPSA was found to be 196 A^2.

Turning to `CC(=O)NCCCC[C@H](NC(=O)C1(NC(=O)[C@H](Cc2ccc3ccccc3c2)NC(=O)[C@H](Cc2ccc(OCCN)cc2)NC(=O)[C@H]2NC(=O)[C@H](CCCCN(C)C(C)=O)NC(=O)[C@H](Cc3c[nH]c4c(C)cccc34)NC(=O)[C@H]([C@@H](C)O)NC(=O)[C@H](CC(N)=O)NC(=O)[C@@H](NC(=O)C(COCCOCC[N+](C)(C)C)NC(C)=O)C(C)(C)SSC2(C)C)CCOCC1)C(=O)N[C@@H](CC(N)=O)C(=O)N[C@@H](Cc1cccnc1)C(=O)N(C)CC(N)=O` (mixture of isomers) [compound 554, MeCO-APEG2Ser(RS)-Pen(3)-N-T-7MeW-K(Ac)-Pen(3)-AEF-2Nal-THP-K(Ac)-N-3Pya-Sar-CONH2], the IC50 in data set [1] came to 3 nM. Moreover, the EPSA in data set [2] was 171 A^2.

In the case of `CC(=O)NCCCC[C@@H]1NC(=O)[C@H](Cc2c[nH]c3c(C)cccc23)NC(=O)[C@H]([C@@H](C)O)NC(=O)[C@H](CC(N)=O)NC(=O)[C@@H](NC(C)=O)C(C)(C)SSC(C)(C)[C@@H](C(=O)N[C@@H](Cc2ccc(OCCN)cc2)C(=O)N[C@@H](Cc2ccc3ccccc3c2)C(=O)NC2(C(=O)N[C@@H](CCCCNC(C)=O)C(=O)N[C@@H](CC(N)=O)C(=O)N(C)C)CCOCC2)NC1=O` [compound 153] (Ac-[Pen]NT[Trp(7-Me)]K(Ac)[Pen][AEF][2Nal][Thp]K(Ac)N-NMe2; disulfide 1-6 (inferred)), in data set [1], the IC50 amounted to 270 nM. The EPSA in data set [2] stood at 171 A^2.
